Experiment [1] relates to P. falciparum NF54 hsp86-PpyRE13 asexual stages. As to the kind of experiment: P. falciparum asexual stage assay (pLDH). Format: cell-based, Plasmodium falciparum. The settings on record: Plasmodium falciparum, NF54, read-out: NF54 Hsp86 PpYRE13 (IC50 nM). The protocol:
With the selected 84 compounds, the subsequent step aimed at determining the gametocyte inhibition potency and the parasite stage selectivity between the gametocytes and the asexual stages in the NF54 hsp86-PpyRE13. […] Similar data were obtained considering the gametocyte IC50 values measured in the NF54 pfs16-GFP-PyLUC strain (see Supplementary Data 2).
Parasite proliferation assays were performed in 384-well plates (Thermo, 4332, USA) with a starting parasitemia of 0.25% at a haematocrit of 2% by quantification of parasite lactate dehydrogenase (pLDH). Compounds or DMSO as control were pre dispensed on plates, from 10 mM DMSO stock solutions, via an acoustic droplet ejection device (ATS-100, EDC Biosystems) to achieve de final desired concentration. Assay plates were incubated for 72 h at 37 °C in 4% CO2, 3% O2, and 93% N2 modified atmosphere. After the incubation period, plates are frozen at −80 °C for two h and then thawed at room temperature for 2 h. Then, 50 µL of the developer solution (70 mM Tris-HCl pH 8.0, 0.5% Tween-20, 100 mM Lithium L-Lactate, 125 µM nitro blue tetrazolium, 2 U/ml diaphorase and 100 µM 3-Acetylpyridine Adenine Dinucleotide) are added to each well and let to react for 10 min. Absorbance was then read at 650 nm by a suitable spectrophotometer.

A further experiment deals with HeLa cells. As to the kind of experiment: HeLa cell proliferation assay (CellTiter Glo). Format: cell-based, human. Conditions: Homo sapiens. The protocol:
In addition, we tested the 84 compounds in a dose-response fashion on HeLa cells to quantitatively monitor their cytotoxicity potential.
HeLa cells (CCL-2, ATCC, USA) were cultured in DMEM without phenol red (Thermo, 11880, USA) + 10% FBS + 1X PenStrep + 1X Gln. They were plated in a 384-well plate (Thermo, 4334-11, USA) to a density of 2000 cells per well and let recover for 4 h at 37 °C, 5% CO2 in a humidified atmosphere. After the recovery, compounds were transferred to assay plates as per compound preparation method. Assay plates were then incubated at 37 °C, 5% CO2 in a humidified atmosphere for 72 h. Cell viability was measured by the CellTiTer Glo (Promega, G8080, USA) as per manufacturer instruction.

Structures are written as SMILES.

As usually defined, the IC50 is the concentration at which inhibition is half-maximal.

Consider `OC(c1ccc(Cl)cc1)C1CCN(CCCN2CCC(C(O)c3ccc(Cl)cc3)CC2)CC1` (stereo not drawn) [Compound 13], for which the IC50 came to 1740 nM in experiment [1] and 4510 nM in the experiment with HeLa cells.
As to `Cc1ccc2nc(-c3ccccc3)c(CSc3cccc[n+]3[O-])n2c1` [Compound 16], the half-maximal inhibitory concentration (IC50) in experiment [1] stood at 1270 nM; in the experiment with HeLa cells it was 9510 nM.
The like results for `COc1ccccc1Cn1cc2c(-c3ccc(F)cc3)nnc-2c2cc(OC)c(OC)cc21` [Compound 31] were, in that order, 967 nM and 5000 nM.
Taken in the same sequence, the figures for `Clc1ccc(Nc2nc(-c3ccccn3)cs2)nc1` [Compound 39] were 540 nM and 2950 nM.
Taken in the same sequence, the figures for `COc1cc(CNCC2CCNCC2)ccc1OCc1cccc(Cl)c1` [Compound 53] were 2360 nM and 5340 nM.
Take `Cc1ccc(Nc2cc(C)nc(Nc3ccc(NC(=O)c4cc5ccccc5oc4=O)cc3)n2)cc1` [Compound 63]: the half-inhibitory concentration (IC50) in experiment [1] was 1730 nM; in the experiment on HeLa cells it was 8690 nM.
Taken in the same sequence, the figures for `COc1ccc(Nc2cc(C)nc(Nc3ccc(NC(=O)c4cc(C)cc(C)c4)cc3)n2)cc1` [Compound 64] were 437 nM and 8100 nM.
For `COc1ccc(NC(=O)Nc2ccc(Nc3nc(C)cc(Nc4ccc(C)cc4)n3)cc2)cc1` [Compound 65], the IC50 in experiment [1] is 904 nM; with HeLa cells, 4500 nM.
Taken in the same sequence, the figures for `O=C(c1ccc([N+](=O)[O-])o1)N1CCC(Cn2cnc3ccccc32)CC1` [Compound 69] were 6150 nM and 11300 nM.

Source of the values: paper PMC9170688, “Gametocyte-specific and all-blood-stage transmission-blocking chemotypes discovered from high throughput screening on Plasmodium falciparum gametocytes” (Communications Biology, 2022).
